# Test results: ChEMBL document CHEMBL4364299, “Discovery of a Potent Kelch-Like ECH-Associated Protein 1-Nuclear Factor Erythroid 2-Related Factor 2 (Keap1-Nrf2) Protein-Protein Interaction Inhibitor with Natural Proline Structure as a Cytoprotective Agent against Acetaminophen-Induced Hepatotoxicity” (J Med Chem, 2019)
# Assays:
# [1] = biological target: Kelch-like ECH-associated protein 1 (Homo sapiens, UniProt Q14145); experiment: Displacement of FITC-LDEETGEFL-NH2 from human KEAP1 Kelch domain (322 to 609 residues) measured after 30 mins by fluorescence polarization assay
# [2] = biological target: T1, Nuclear factor erythroid 2-related factor 2 (Homo sapiens) (UniProt Q16236); experiment: Activation of Nrf2 (unknown origin) stably transfected in human HepG2-ARE-C8 cells assessed as increase in ARE-driven luciferase activity at 10 uM by luciferase reporter gene assay relative to control; type: cell-based
# T1 sequence (whole entry): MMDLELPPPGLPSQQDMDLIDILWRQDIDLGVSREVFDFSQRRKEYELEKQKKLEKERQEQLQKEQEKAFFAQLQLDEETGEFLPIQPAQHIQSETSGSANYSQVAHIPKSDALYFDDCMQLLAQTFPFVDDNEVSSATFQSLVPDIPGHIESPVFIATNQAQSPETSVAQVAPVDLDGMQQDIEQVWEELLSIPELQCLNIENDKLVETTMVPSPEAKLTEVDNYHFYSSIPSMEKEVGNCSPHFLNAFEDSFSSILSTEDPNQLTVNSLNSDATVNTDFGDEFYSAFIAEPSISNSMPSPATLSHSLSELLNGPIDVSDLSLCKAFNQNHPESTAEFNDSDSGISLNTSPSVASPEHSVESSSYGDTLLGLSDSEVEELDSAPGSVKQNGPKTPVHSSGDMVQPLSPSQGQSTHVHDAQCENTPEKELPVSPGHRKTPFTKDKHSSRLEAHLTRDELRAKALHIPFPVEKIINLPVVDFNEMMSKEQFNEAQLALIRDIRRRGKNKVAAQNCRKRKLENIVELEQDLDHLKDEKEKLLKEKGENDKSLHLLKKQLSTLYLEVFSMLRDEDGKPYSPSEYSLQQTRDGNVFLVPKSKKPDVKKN
# [3] = biological target: T1, Nuclear factor erythroid 2-related factor 2 (Homo sapiens); experiment: Activation of Nrf2 (unknown origin) stably transfected in human HepG2-ARE-C8 cells assessed as increase in ARE-driven luciferase activity at 0.1 uM by luciferase reporter gene assay relative to control; type: cell-based
# [4] = biological target: T1, Nuclear factor erythroid 2-related factor 2 (Homo sapiens); experiment: Activation of Nrf2 (unknown origin) stably transfected in human HepG2-ARE-C8 cells assessed as increase in ARE-driven luciferase activity at 5 uM by luciferase reporter gene assay relative to control; type: cell-based
# [5] = biological target: T1, Nuclear factor erythroid 2-related factor 2 (Homo sapiens); experiment: Activation of Nrf2 (unknown origin) stably transfected in human HepG2-ARE-C8 cells assessed as increase in ARE-driven luciferase activity at 0.01 uM by luciferase reporter gene assay relative to control; type: cell-based
# [6] = biological target: T1, Nuclear factor erythroid 2-related factor 2 (Homo sapiens); experiment: Activation of Nrf2 (unknown origin) stably transfected in human HepG2-ARE-C8 cells assessed as increase in ARE-driven luciferase activity at 20 uM by luciferase reporter gene assay relative to control; type: cell-based
# [7] = biological target: T1, Nuclear factor erythroid 2-related factor 2 (Homo sapiens); experiment: Activation of Nrf2 (unknown origin) stably transfected in human HepG2-ARE-C8 cells assessed as increase in ARE-driven luciferase activity at 1 uM by luciferase reporter gene assay relative to control; type: cell-based
# Kelch-like ECH-associated protein 1, sequence (Q14145 whole entry, the tested form may be a part): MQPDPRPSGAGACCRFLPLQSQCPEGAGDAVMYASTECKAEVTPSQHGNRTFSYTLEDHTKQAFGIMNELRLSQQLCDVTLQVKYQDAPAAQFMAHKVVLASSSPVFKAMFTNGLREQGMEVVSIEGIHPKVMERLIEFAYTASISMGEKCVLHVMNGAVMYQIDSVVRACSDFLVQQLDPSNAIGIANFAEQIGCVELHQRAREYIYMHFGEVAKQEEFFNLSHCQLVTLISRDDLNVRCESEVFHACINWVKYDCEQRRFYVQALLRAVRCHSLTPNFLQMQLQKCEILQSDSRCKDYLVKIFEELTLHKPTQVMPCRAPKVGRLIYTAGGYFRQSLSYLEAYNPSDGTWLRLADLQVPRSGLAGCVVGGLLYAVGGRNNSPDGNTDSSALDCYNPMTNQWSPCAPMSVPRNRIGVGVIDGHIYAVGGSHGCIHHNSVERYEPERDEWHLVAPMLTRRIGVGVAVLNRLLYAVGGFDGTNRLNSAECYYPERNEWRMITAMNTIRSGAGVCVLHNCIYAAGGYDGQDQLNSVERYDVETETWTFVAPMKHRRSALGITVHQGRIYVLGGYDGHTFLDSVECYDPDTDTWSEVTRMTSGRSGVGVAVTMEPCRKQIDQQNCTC
IC50 [1],also measured,Structure (SMILES)
> 50 µM,,COc1ccc(S(=O)(=O)Nc2ccc(N[C@@H](CC(C)C)C(=O)O)c3ccccc23)cc1
> 50 µM,,COc1ccc(S(=O)(=O)Nc2ccc(N[C@@H](CCS(C)(=O)=O)C(=O)O)c3ccccc23)cc1
> 50 µM,,COc1ccc(S(=O)(=O)Nc2ccc(N[C@H](C(=O)O)C(C)(C)C)c3ccccc23)cc1
> 50 µM,,COc1ccc(S(=O)(=O)Nc2ccc(N[C@@H](CO)C(=O)O)c3ccccc23)cc1
> 50 µM,,COc1ccc(S(=O)(=O)Nc2ccc(N[C@@H](Cc3c[nH]c4ccccc34)C(=O)O)c3ccccc23)cc1
> 50 µM,,COc1ccc(S(=O)(=O)Nc2ccc(N[C@@H](Cc3ccc(O)cc3)C(=O)O)c3ccccc23)cc1
> 50 µM,,COc1ccc(S(=O)(=O)Nc2ccc(N[C@H](C(=O)O)C(C)C)c3ccccc23)cc1
> 50 µM,,COc1ccc(S(=O)(=O)N(CC(=O)O)c2ccc(N[C@@H](CO)C(=O)O)c3ccccc23)cc1
> 50 µM,,COc1ccc(S(=O)(=O)Nc2ccc(N[C@@H](C)C(=O)O)c3ccccc23)cc1
,fold change (FC) [2]: 3.38; fold change (FC) [3]: 1.02; fold change (FC) [4]: 2.27; fold change (FC) [5]: 1.04; fold change (FC) [6]: 4.87; fold change (FC) [7]: 1.46,CC(C)(C)c1cc(O)ccc1O
